Assays:
[1] = target: T1, human KDR (Homo sapiens, UniProt P35968); experiment: VEGFR2 Kinase (KDR) HTRF Assay; format: biochemical; settings: GST-tagged kinase domain of human KDR, 10 μM ATP; read-out: KDR activity (assay 4)
T1 construct: GST-tagged recombinant kinase domain of the human KDR; GST; made in house; host or cells: SF-9 insect cells
Description: Assay 4: VEGFR2 Kinase (KDR) HTRF Assay
KDR inhibitory activity of compounds of the present invention was quantified employing the KDR HTRF assay as described in the following paragraphs.
GST-tagged recombinant kinase domain of the human KDR expressed in SF-9 cells was used as kinase. As substrate for the kinase reaction the biotinylated peptide biotin-Ahx-DFGLARDMYDKEYYSVG (C-terminus in acid form) was used which can be purchased e.g. form the company Biosynthan GmbH (Berlin-Buch, Germany). KDR was incubated for 45 min at 22° C. in the presence of different concentrations of test compounds in 5 μl assay buffer [50 mM Hepes/NaOH pH 7.0, 25 mM MgCl2, 5 mM MnCl2, 1.0 mM dithiothreitol, 0.1 mM sodium ortho-vanadate, 10 μM adenosine-tri-phosphate (ATP), 0.5 μM substrate, 0.001% (v/v) Nonidet-P40 (Sigma), 1% (v/v) dimethylsulfoxide]. The concentration of KDR was adjusted depending of the activity of the enzyme lot and was chosen appropriate to have the assay in the linear range. The reaction was stopped by the addition of 5 μL of a solution of HTRF detection reagents (0.1 μM streptavidine-XLent and 2 nM PT66-Eu-Chelate, an europium-chelate Labelled anti-phospho-tyrosine antibody from Perkin Elmer) in an aqueous EDTA-solution (125 mM EDTA, 0.2% (w/v) bovine serum albumin in 50 mM HEPES/NaOH pH 7.0).
The resulting mixture was incubated 1 h at 22° C. to allow the binding of the biotinylated phosphorylated peptide to the streptavidine-XLent and the PT66-Eu-Chelate. Subsequently the amount of phosphorylated substrate was evaluated by measurement of the resonance energy transfer from the PT66-Eu-Chelate to the streptavidine-XLent. Therefore, the fluorescence emissions at 620 nm and 665 nm after excitation at 350 nm was measured in a HTRF reader, e.g. a Rubystar (BMG Labtechnologies, Offenburg, Germany) or a ViewLux (Perkin-Elmer). The ratio of the emissions at 665 nm and at […] was taken as the measure for the amount of phosphorylated substrate. The data were normalised (enzyme reaction without inhibitor=0% inhibition, all other assay components but no enzyme=100% inhibition) and IC50 values were calculated by a 4 parameter fit using an inhouse software.

[2] = target: T2, CDK2/CycE (Homo sapiens, UniProt P24941); experiment: CDK2/Cyclin E Kinase Assay; format: biochemical; settings: CDK2/CycE HTRF, 10 μM ATP; read-out: CDK2 activity (assay 6)
T2 construct: GST; purchased ProQinase GmbH (Freiburg, Germany); host or cells: insect cells (Sf9)
Description: Assay 6: CDK2/Cyclin E Kinase Assay
CDK2/CyclinE—inhibitory activity of compounds of the present invention was quantified employing the CDK2/CycE HTRF assay as described in the following paragraphs.
Recombinant fusion proteins of GST and human CDK2 and of GST and human CycE, expressed in insect cells (Sf9) and purified by Glutathion-Sepharose affinity chromatography, were purchase from ProQinase GmbH (Freiburg, Germany). As substrate for the kinase reaction biotinylated peptide biotin-Ttds-YISPLKSPYKISEG (C-terminus in amid form) was used which can be purchased e.g. form the company JERINI peptide technologies (Berlin, Germany).
CDK2/CycE was incubated for 60 min at 22° C. in the presence of different concentrations of test compounds in 5 μl assay buffer [50 mM Tris/HCl pH 8.0, 10 mM MgCl2, 1.0 mM dithiothreitol, 0.1 mM sodium ortho-vanadate, 10 μM adenosine-tri-phosphate (ATP), 0.75 μM substrate, 0.01% (v/v) Nonidet-P40 (Sigma), 1% (v/v) dimethylsulfoxide]. The concentration of CDK2/CycE was adjusted depending of the activity of the enzyme lot and was chosen appropriate to have the assay in the linear range, typical concentrations were in the range of 1 ng/ml. The reaction was stopped by the addition of 5 μl of a solution of HTRF detection reagents (0.2 μM streptavidine-XLent and 3.4 nM Phospho-(Ser) CDKs Substrate Antibody [product #2324B, Cell Signaling Technology, Danvers, Mass., USA} and 4 nM Prot-A-EuK [Protein A labeled with Europium Cryptate from Cis biointernational, France, product no. 61PRAKLB]) in an aqueous EDTA-solution (100 mM EDTA, 800 mM KF, 0.2% (w/v) bovine serum albumin in 100 mM HEPES/NaOH pH 7.0).
The resulting mixture was incubated 1 h at 22° C. to allow the formation of complex between the phosphorylated biotinylated peptide and the detection reagents. Subsequently the amount of phosphorylated substrate was evaluated by measurement of the resonance energy transfer from the Prot-A-EuK to the streptavidine-XLent. Therefore, the fluorescence emissions at 620 nm and 665 nm after excitation at 350 nm was measured in a HTRF reader, e.g. a Rubystar (BMG Labtechnologies, Offenburg, Germany) or a Viewlux (Perkin-Elmer). The ratio of the emissions at 665 nm and at […] was taken as the measure for the amount of phosphorylated substrate. The data were normalised (enzyme reaction without inhibitor=0% inhibition, all other assay components but no enzyme=100% inhibition) and IC50 values were calculated by a 4 parameter fit using an inhouse software.

T1 sequence (P35968 834-1162 limits assumed): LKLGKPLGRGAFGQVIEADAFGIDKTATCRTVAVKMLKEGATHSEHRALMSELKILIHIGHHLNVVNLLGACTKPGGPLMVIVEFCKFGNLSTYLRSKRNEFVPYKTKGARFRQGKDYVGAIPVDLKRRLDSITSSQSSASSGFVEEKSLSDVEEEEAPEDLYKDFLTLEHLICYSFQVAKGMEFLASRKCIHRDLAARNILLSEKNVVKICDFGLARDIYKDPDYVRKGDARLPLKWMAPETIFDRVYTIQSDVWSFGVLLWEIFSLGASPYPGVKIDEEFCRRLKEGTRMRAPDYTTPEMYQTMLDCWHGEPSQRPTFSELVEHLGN

Compound | IC50 [1] [nM] | IC50 [2] [nM]
Cc1ccccc1C#Cc1cnc(Nc2ccc(S(C)(=N)=O)cc2)nc1N[C@H](C)CO (mixture of isomers) [Example 1.3] | < 500 | 1000 to 10000
C[C@H](CO)Nc1nc(Nc2cccc(S(C)(=N)=O)c2)ncc1C#Cc1cccc(O)c1 (mixture of isomers) [Example 1.18, (RS)-S-(3-[4-((R)-2-Hydroxy-1-methyl-ethylamino)-5-(3-hydroxy-phenylethynyl)-pyrimidin-2-ylamino]-phenyl)-S-methylsulfoximide] | < 500 | 1000 to 10000
C[C@H](CO)Nc1nc(Nc2ccc(S(C)(=N)=O)cc2)ncc1C#Cc1ccc(F)cc1 (mixture of isomers) [Example 1.9, (RS)-S-(4-[5-(4-Fluoro-phenyl-ethynyl)-4-((R)-2-hydroxy-1-methyl-ethylamino)-pyrimidin-2-ylamino]-phenyl)-S-methylsulfoximide] | < 500 | > 10000
CCc1ccc(C#Cc2cnc(Nc3ccc(S(C)(=N)=O)cc3)nc2N[C@H](C)CO)cc1 (mixture of isomers) [Example 1.8, (RS)-S-(4-[5-(4-Ethyl-phenylethynyl)-4-((R)-2-hydroxy-1-methyl-ethylamino)-pyrimidin-2-ylamino]-phenyl)-S-methylsulfoximide] | < 500 | > 10000
C[C@H](CO)Nc1nc(Nc2ccc(S(C)(=N)=O)cc2)ncc1C#Cc1ccccc1 (mixture of isomers) [Example 1.2, (RS)-S-(4-[4-((R)-2-Hydroxy-1-methyl-ethylamino)-5-(phenylethynyl)-pyrimidin-2-ylamino]-phenyl)-S-methylsulfoximide] | < 500 | > 10000
CCOC(=O)N=S(C)(=O)c1ccc(Nc2ncc(C#Cc3cccc(O)c3)c(N[C@H](C)CO)n2)cc1 (mixture of isomers) [Example 2.7] | < 500 | 1000 to 10000
CS(=N)(=O)c1cccc(Nc2ncc(C#Cc3cccc(O)c3)cn2)c1 (racemic) [Example 4.2, (RS)—S-(3-[5-(3-hydroxy-phenylethynyl)-pyrimidin-2-ylamino]-phenyl)-S-methylsulfoximide] | < 500 | > 10000
COc1ccc(C#Cc2cnc(Nc3cccc(S(C)(=N)=O)c3)nc2N[C@H](C)CO)cc1 (mixture of isomers) [Example 1.17, (RS)-S-(3-[4-((R)-2-Hydroxy-1-methyl-ethylamino)-5-(4-methoxy-phenylethynyl)-pyrimidin-2-ylamino]-phenyl)-S-methylsulfoximide] | < 500 | > 10000
CCNc1nc(Nc2ccc(S(C)(=N)=O)cc2)ncc1C#Cc1ccc(F)c(C)c1 (racemic) [Example 1.24, (RS)-S-(4-[4-ethylamino-5-(4-fluoro-3-methyl-phenyl-ethynyl)-pyrimidin-2-ylamino]-phenyl)-S-methylsulfoximide] | < 500 | > 10000
Cc1ccccc1C#Cc1cnc(Nc2cccc(S(C)(=N)=O)c2)nc1N[C@H](C)CO (mixture of isomers) [Example 1.19, (RS)-S-(3-[4-((R)-2-Hydroxy-1-methyl-ethylamino)-5-(2-methyl-phenylethynyl)-pyrimidin-2-ylamino]-phenyl)-S-methylsulfoximide] | < 500 | 
CCNc1nc(Nc2ccc(S(C)(=N)=O)cc2)ncc1C#Cc1ccc(OC)cc1 (racemic) [Example 1.26, (RS)-S-(4-[4-ethylamino-5-(4-methoxy-phenyl-ethynyl)-pyrimidin-2-ylamino]-phenyl)-S-methylsulfoximide] | < 500 | > 10000
Cc1cc(C#Cc2cnc(Nc3cccc(S(C)(=N)=O)c3)nc2N[C@H](C)CO)ccc1F (mixture of isomers) [Example 1.20, (RS)-S-(3-[5-(4-Fluoro-3-methyl-phenyl-ethynyl)-4-((R)-2-hydroxy-1-methyl-ethylamino)-pyrimidin-2-ylamino]-phenyl)-S-methylsulfoximide] | < 500 | 
Cc1cc(C#Cc2cnc(Nc3ccc(S(C)(=N)=O)cc3)nc2N[C@H](C)CO)ccc1F (mixture of isomers) [Example 1.13, (RS)-S-(4-[5-(4-Fluoro-3-methyl-phenyl-ethynyl)-4-((R)-2-hydroxy-1-methyl-ethylamino)-pyrimidin-2-ylamino]-phenyl)-S-methylsulfoximide] | < 500 | > 10000
COc1ccc(C#Cc2cnc(Nc3ccc(S(C)(=N)=O)cc3)nc2N[C@H](C)CO)cc1 (mixture of isomers) [Example 1.1, (RS)—S-(4-[4-((R)-2-Hydroxy-1-methyl-ethylamino)-5-(4-methoxy-phenylethynyl)-pyrimidin-2-ylamino]-phenyl)-S-methylsulfoximide] | < 500 | > 10000
Cc1ccc(C#Cc2cnc(Nc3ccc(S(C)(=N)=O)cc3)nc2N[C@H](C)CO)cc1 (mixture of isomers) [Example 1.5] | < 500 | 1000 to 10000
CC(C)NC(=O)N=S(C)(=O)c1cccc(Nc2ncc(C#Cc3cccc(O)c3)c(N[C@H](C)CO)n2)c1 (mixture of isomers) [Example 1.15, (RS)-S-(3-[4-((R)-2-Hydroxy-1-methyl-ethylamino)-5-(3-hydroxy-phenylethynyl)-pyrimidin-2-ylamino]-phenyl)-N-(isopropylcarbamoyl)-S-methylsulfoximide] | < 500 | 1000 to 10000
